Structures are written as SMILES. Structures can show the parent of a compound that is named as a salt. Where two headings read alike, the source gives them in different places.

The values below come from US7935700B2, “Morpholine compound” (Mitsubishi Tanabe Pharma Corporation, priority 2004, dated 2011).

The test system of test [1] is mouse ovalbumin (OVA) induced allergic and biphasic ear edema. Description: Antigen (OVA) induced allergic and biphasic ear edema model. Type of test: in vivo. The settings on record: male BALB/c mice, oral once a day from 2 days before induction, 3 or 10 mg/kg tested. The procedure: 3: Effect on Antigen Induced Allergic and Biphasic Ear Edema Model
The in vivo effect of the compound of the present invention was examined using a mouse ovalbumin (OVA) induced allergic and biphasic ear edema model. The model was prepared according to the method of Sugawara et al. (Allergy & Clinical Immunology International, Supplement No. 2, P 785, 2000). In other words, male BALB/c mice were immunized by intraperitoneal injection with 10 μg of OVA and 1 mg of aluminum hydroxide gel (Alum). At 14 days after immunization, OVA (5 μg) were subcutaneously injected to the both ears of the mouse, whereby ear edema was induced. The thickness of the ears was measured using a dial sickness gauge immediately before subcutaneous injection and 1 and 24 hrs after subcutaneous injection of OVA. The compound of the present invention was suspended in a vehicle, 0.5% hydroxypropylmethyl cellulose solution, and orally administered at 3 mg/kg or 10 mg/kg once a day using an orally gavage needle from 2 days before ear edema induction.

In another test the target is T1, CCR3 (Homo sapiens, UniProt P51677).
T1 construct: Eosinophils separated from peripheral blood of healthy subject; endogenous in cells; host or cells: eosinophils separated from peripheral blood of healthy subject
T1 sequence (P51677 1-355): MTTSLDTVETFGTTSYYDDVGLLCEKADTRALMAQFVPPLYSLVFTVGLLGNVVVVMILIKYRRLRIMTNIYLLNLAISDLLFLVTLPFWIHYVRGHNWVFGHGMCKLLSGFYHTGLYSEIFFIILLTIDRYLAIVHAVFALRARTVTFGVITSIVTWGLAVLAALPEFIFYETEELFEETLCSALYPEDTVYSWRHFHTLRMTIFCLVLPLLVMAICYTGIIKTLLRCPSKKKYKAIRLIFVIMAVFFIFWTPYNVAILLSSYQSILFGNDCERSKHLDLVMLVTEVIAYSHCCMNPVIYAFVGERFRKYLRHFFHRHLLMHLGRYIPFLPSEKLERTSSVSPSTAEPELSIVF
Put plainly: Effect on intracellular calcium concentration in eosinophils upon CCL11 stimulation. Type of test: cell-based. The following applies: peripheral blood eosinophils of healthy subject, agonist CCL11 1.0 nmol/L, compound 3 min before stimulation, Fura-2 AM; read-out: IC50 (50% suppression of the increase in the intracellular calcium concentration). The procedure: Effect on Intracellular Calcium Concentration
The effect of the compound of the present invention on intracellular calcium mobilization in peripheral blood eosinophils of healthy subject upon CCL11 stimulation was examined by the following method.
Eosinophils separated from peripheral blood of healthy subject were suspended in 0.5% bovine serum albumin-containing phosphate buffered saline, and incubated at 37° C. for 45 min in the presence of 5 μmol/L of Fura-2 AM (manufactured by DOJINDO LABORATORIES).
After incubation, the cells were washed 3 times with a measurement buffer (10 mmol/L HEPES, and 0.5% bovine serum albumin-containing hanks' balanced salt solution) to remove Fura-2 AM that was not incorporated into the cells.
Finally, the cells were adjusted to 1×10^6 cells/mL with the measurement buffer and preserved in a dark place until measurement. The intracellular calcium was measured using FDSS3000 manufactured by Hamamatsu Photonics K.K. In other words, the cell suspension (0.1 mL) loaded with Fura-2 AM was placed in a 96 well plate for measurement, the fluorescence intensity to the excitation light at wavelengths 340 nm and 380 nm was measured by FDSS3000, the ratio of the fluorescence intensity to the excitation light at these two wavelengths was determined, based on which the intracellular calcium concentration was calculated. As the agonist, used was CCL11 (1.0 nmol/L), which is a CCR3 selective ligand, and the antagonistic activity was determined as 50% suppression rate (IC50 value) of the increase in the intracellular calcium concentration, when eosinophils were treated with various concentrations of the compound of the present invention at 3 min before agonist stimulation.
In general terms: Calcium assays in cells follow changes in intracellular calcium, usually with a dye or a luminescent sensor.

[2] abbreviates: ear thickness 1 hr after OVA, read-out: Dose that showed a significant suppressive action vs vehicle, Immediate phase.
[3] abbreviates: ear thickness 24 hrs after OVA, read-out: Dose that showed a significant suppressive action vs vehicle, Late phase.

`Nc1nnc(SCC(=O)NC[C@H]2CN(Cc3cccc(Cl)c3)CCO2)s1` [Example 123, (2S)-(5-amino-1,3,4-thiadiazol-2-ylthio)-N-{[4-(3-chlorobenzyl)morpholin-2-yl]methyl}acetamide]: the minimal effective dose in test [1] (setting [2]) and in test [1] (setting [3]) was 10 mg/kg throughout. Also, the IC50 at CCR3 was 2.6 nM.
Turning to `NC(=O)CNC(=O)c1csc(SCC(=O)NC[C@H]2CN(Cc3ccc(F)c(F)c3)CCO2)n1` [Example 115, (2S)-[4-(2-amino-2-oxoethyl)aminocarbonylthiazol-2-ylthio]-N-{[4-(3,4-difluorobenzyl)morpholin-2-yl]methyl}acetamide], on CCR3, the IC50 came out at 2.6 nM.
On the same count and under the same terms, the result for `NC(=O)Cc1csc(SCC(=O)NC[C@H]2CN(Cc3ccc(F)c(F)c3)CCO2)n1` [Example 79, (2S)-[4-(carbamoylmethyl)thiazol-2-ylthio]-N-{[4-(3,4-difluorobenzyl)morpholin-2-yl]methyl}acetamide] reads 0.9 nM.
In the case of `O=C(CSc1ncccn1)NC[C@H]1CN(Cc2ccc(Cl)c(Cl)c2)CCO1` [Example 146, (2S)-N-{[4-(3,4-dichlorobenzyl)morpholin-2-yl]methyl}-(pyrimidin-2-ylthio)acetamide], the minimal effective dose in test [1] (setting [2]) and in test [1] (setting [3]) was 3 mg/kg throughout. Also, the IC50 at CCR3 is 2.5 nM.
Consider `O=C(O)CCNC(=O)c1csc(SCC(=O)NC[C@H]2CN(Cc3ccc(Cl)c(Cl)c3)CCO2)n1` [Example 46, (2S)-{4-[(2-carboxyethyl)aminocarbonyl]thiazol-2-ylthio}-N-{[4-(3,4-dichlorobenzyl)morpholin-2-yl]methyl}acetamide hydrochloride], for which the minimal effective dose in test [1] (setting [2]) and in test [1] (setting [3]) was 10 mg/kg each time. On CCR3, the IC50 was 3.1 nM.
`NC(=O)Cc1cncc(SCC(=O)NC[C@H]2CN(Cc3ccc(Cl)c(Cl)c3)CCO2)n1` [Example 223, (2S)-[6-(carbamoylmethyl)pyrazin-2-ylthio]-N-{[4-(3,4-dichlorobenzyl)morpholin-2-yl]methyl}acetamide]: the IC50 at CCR3 was 0.1 nM.
For `NC(=O)c1csc(SCC(=O)NC[C@H]2CN(Cc3ccc(F)c(Cl)c3)CCO2)n1` [Example 112, (2S)-(4-carbamoylthiazol-2-ylthio)-N-{[4-(3-chloro-4-fluorobenzyl)morpholin-2-yl]methyl}acetamide], the IC50 on CCR3 worked out at 0.9 nM.
Take `Cc1sc(SCC(=O)NC[C@H]2CN(Cc3ccc(Cl)c(Cl)c3)CCO2)nc1C(=O)O` [Example 109, (2S)-(4-carboxy-5-methylthiazol-2-ylthio)-N-{[4-(3,4-dichlorobenzyl)morpholin-2-yl]methyl}acetamide]: the IC50 on CCR3 was 22.3 nM.
With `CC(=O)Nc1nnc(SCC(=O)NC[C@H]2CN(Cc3ccc(Cl)c(Cl)c3)CCO2)s1` [Example 53, (2S)-(5-acetamino-1,3,4-thiadiazol-2-ylthio)-N-{[4-(3,4-dichlorobenzyl)morpholin-2-yl]methyl}acetamide], the minimal effective dose in test [1] (setting [2]) and in test [1] (setting [3]) was 3 mg/kg throughout. Besides, the IC50 on CCR3 was 5.3 nM.
On to `Nc1nnc(SCC(=O)NC[C@H]2CN(Cc3ccc(F)c(F)c3)CCO2)s1` [Example 125, (2S)-(5-amino-1,3,4-thiadiazol-2-ylthio)-N-{[4-(3,4-difluorobenzyl)morpholin-2-yl]methyl}acetamide], for which the minimal effective dose in test [1] (setting [2]) is 10 mg/kg; in test [1] (setting [3]) it was 3 mg/kg. The IC50 at CCR3 came out at 3.6 nM.
Consider `O=C(CCCS(=O)(=O)C1CCCC1)NC[C@H]1CN(Cc2ccc(F)c(Cl)c2)CCO1` [Example 232, (2S)-4-(cyclopentanesulfonyl)-N-{[4-(3-chloro-4-fluorobenzyl)morpholin-2-yl]methyl}butyramide], for which the IC50 on CCR3 was determined as 38.5 nM.
Regarding `O=C(CSc1ccc(=O)[nH]n1)NC[C@H]1CN(Cc2ccc(F)c(F)c2)CCO1` [Example 198, (2S)-N-{[4-(3,4-difluorobenzyl)morpholin-2-yl]methyl}-(6-oxo-1,6-dihydropyridazin-3-ylthio)acetamide], the minimal effective dose in test [1] (setting [2]) and in test [1] (setting [3]) was 10 mg/kg throughout. The IC50 at CCR3 is 3.9 nM.
On to `NC(=O)c1csc(SCCCC(=O)NC[C@H]2CN(Cc3ccc(Cl)c(Cl)c3)CCO2)n1` [Example 55, (2S)-4-(4-carbamoylthiazol-2-ylthio)-N-{[4-(3,4-dichlorobenzyl)morpholin-2-yl]methyl}butyramide hydrochloride], for which the IC50 on CCR3 was determined as 1.1 nM.
With `NC(=O)Cc1csc(SCC(=O)NC[C@H]2CN(Cc3ccc(F)cc3)CCO2)n1` [Example 107, (2S)-[4-(carbamoylmethyl)thiazol-2-ylthio]-N-{[4-(4-fluorobenzyl)morpholin-2-yl]methyl}acetamide], the IC50 on CCR3 is 2.5 nM.
As for `Cc1sc(SCC(=O)NC[C@H]2CN(Cc3ccc(Cl)c(Cl)c3)CCO2)nc1C(N)=O` [Example 110, (2S)-(4-carbamoyl-5-methylthiazol-2-ylthio)-N-{[4-(3,4-dichlorobenzyl)morpholin-2-yl]methyl}acetamide], the IC50 at CCR3 came out at 1.5 nM.
As for `O=C(CSc1nc(-c2nnn[nH]2)cs1)NC[C@H]1CN(Cc2ccc(Cl)c(Cl)c2)CCO1` [Example 59, (2S)-N-{[4-(3,4-dichlorobenzyl)morpholin-2-yl]methyl}-[4-(1H-tetrazol-5-yl)thiazol-2-ylthio]acetamide], on CCR3, the IC50 is 2.1 nM.
`CC(=O)c1cc2cc(SCC(=O)NC[C@H]3CN(Cc4ccc(Cl)c(Cl)c4)CCO3)ccc2oc1=O` [Example 174, (2S)-(3-acetyl-2-oxo-2H-chromen-6-ylthio)-N-{[4-(3,4-dichlorobenzyl)morpholin-2-yl]methyl}acetamide]: at CCR3, the IC50 came to 16.2 nM.
Still for that read-out and setting: the result for `NC(=O)/C=C/c1csc(SCC(=O)NC[C@H]2CN(Cc3ccc(Cl)c(Cl)c3)CCO2)n1` [Example 71, (2S)-(E)-[4-(2-carbamoylethen-1-yl)thiazol-2-ylthio]-N-{[4-(3,4-dichlorobenzyl)morpholin-2-yl]methyl}acetamide] reads 0.5 nM.
Turning to `NC(=O)CNC(=O)c1ccc(SCC(=O)NC[C@H]2CN(Cc3ccc(Cl)c(Cl)c3)CCO2)cc1` [Example 40, (2S)-{4-[(2-amino-2-oxoethyl)aminocarbonyl]phenylthio}-N-{[4-(3,4-dichlorobenzyl)morpholin-2-yl]methyl}acetamide], the minimal effective dose in test [1] (setting [2]) and in test [1] (setting [3]) was 3 mg/kg throughout. At CCR3, the IC50 is 2 nM.
In the case of `NC(=O)c1cncc(SCC(=O)NC[C@H]2CN(Cc3ccc(Cl)c(Cl)c3)CCO2)c1` [Example 207, (2S)-(3-carbamoylpyridin-5-ylthio)-N-{[4-(3,4-dichlorobenzyl)morpholin-2-yl]methyl}acetamide], the IC50 at CCR3 turned out to be 2.4 nM.
Take `O=C(CSc1nc2cccnc2s1)NC[C@H]1CN(Cc2ccc(Cl)c(Cl)c2)CCO1` [Example 64, (2S)-N-{[4-(3,4-dichlorobenzyl)morpholin-2-yl]methyl}-([1,3]thiazolo[5,4-b]pyridin-2-ylthio)acetamide]: the minimal effective dose in test [1] (setting [2]) is 10 mg/kg; in test [1] (setting [3]), 3 mg/kg. In addition, the IC50 on CCR3 came to 0.3 nM.
